This is an account of results in patent US4883649A (The University of Michigan, priority 1988, dated 1989).

Series [1] deals with choroid of the eye. The settings on record: rats; clonidine hydrochloride; cited from earlier work.
The conditions of series [2]: patient; cited from earlier work.
Series [3] concerns heart. The settings on record: in vivo; cited from earlier work.
The test system of series [4] is α2-adrenergic receptor sites. The settings on record: cited from earlier work.
The test system of series [5] is α2-receptor sites. The note with it: central nervous system; cited from earlier work.
The test system of series [6] is peripheral α-adrenergic receptors. The settings on record: used as an antihypertensive; initial stimulation of peripheral α-adrenergic receptors; cited from earlier work.
Series [7] relates to bulbar sympathetic cardioaccelerator and sympathetic vasoconstrictor centers. The settings on record: in vivo; cited from earlier work.
The target in series [8] is T1, α2-adrenergic receptor (Homo sapiens, UniProt P08913).
T1 sequence (P08913 1-465): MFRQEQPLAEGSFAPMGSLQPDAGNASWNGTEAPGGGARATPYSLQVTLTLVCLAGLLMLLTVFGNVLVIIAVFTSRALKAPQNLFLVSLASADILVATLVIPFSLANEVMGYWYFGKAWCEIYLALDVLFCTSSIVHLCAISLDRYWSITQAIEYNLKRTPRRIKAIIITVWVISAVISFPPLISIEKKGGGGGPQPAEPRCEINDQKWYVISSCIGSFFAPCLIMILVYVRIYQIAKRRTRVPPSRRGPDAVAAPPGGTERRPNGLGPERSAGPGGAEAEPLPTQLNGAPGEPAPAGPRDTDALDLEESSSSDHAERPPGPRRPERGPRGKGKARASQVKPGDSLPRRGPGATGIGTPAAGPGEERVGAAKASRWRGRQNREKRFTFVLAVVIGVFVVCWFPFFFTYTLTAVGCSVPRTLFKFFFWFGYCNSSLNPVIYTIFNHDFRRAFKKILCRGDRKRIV
The note with it: human platelet membranes, comparison with other drugs.
Description: (§1) Human platelet plasma membranes were prepared by sonication of human platelet concentrates (Red Cross) followed by centrifugation on a discontinuous sucrose gradient (14%/34% by weight) for 3 hours at 140,000 x g. The membrane fraction was collected from the interface of the heavy and light sucrose, and will be herein designated as purified platelet plasma membrane (PPM).
(§2) Bound radioactivity was measured by scintillation counting of the GF/C filter in OCF scintillation cocktail (Amerscham) on a Beckman LR 8100 scintillation counter.
(§3) IC50 is the concentration of compound which reduces binding to 50% of the initial value.

The target of series [9] is T1, α2-adrenergic receptor. The experiment in a line: biochemical.
Description: as §1, §2, §3

“Also recorded” adds a separate entry of the source. Structures can show the parent of a compound that is named as a salt. Where two headings read alike, the source gives them in different places.

Regarding `Clc1cccc(Cl)c1N=C1NCCN1` [clonidine hydrochloride], in [1], the “buildup in the choroid of the eye” value is reported as “significant buildup of clonidine occurs in the choroid of the eye” and the retinal degeneration result is reported as “possibility of retinal degeneration”. Further, the “route of excretion of drug and metabolites” value in series [2] is recorded as “leave the patient primarily through urinary discharge”.

Take `Clc1cccc(Cl)c1N=C1NCCN1` [Clonidine, 2-(2,6-dichlorophenylamine)-2-imidazoline]: the tissue localization entry in series [3] is reported as “known to localize in the heart”. Besides, the binding site specificity result in series [4] is listed as “binds preferentially to α2 -adrenergic receptor sites”. In series [5], the “response to activation of α2-receptor sites” value is given as “response similar to norepinephrine in the central nervous system”. In addition, the initial vascular effect result in series [6] is “transient vasoconstriction”. Moreover, in series [7], the “sympathetic outflow from the brain” value was “decrease in sympathetic outflow from the brain”.

What is called IC50 is the concentration that inhibits the measured activity by half. With `Clc1cc(I)cc(Cl)c1N=C1NCCN1` [p-Iodoclonidine, 2-(2,6-dichloro-4-iodophenylimino-2)imidazolidine], the “relative affinity / potency in competition for α2-adrenergic receptor sites, in words” value was “greater affinity for the receptor than clonidine” in [8] and “more potent than either p-aminoclonidine or clonidine in competition for α2 -adrenergic receptor sites; also recorded: more potent (IC50 =1.3) than clonidine, p-aminoclonidine, or yohimbine; also recorded: binds better than epinephrine” in series [8] (listed as p-iodoclonidine). 1.3 nM corresponded to half-maximal inhibition in [9] (IC50).
